From US11485728B2, “Small molecules for the treatment of autoimmune diseases and cancer” (Athos Therapeutics, Inc., priority 2020, dated 2022)
One block for each molecule: values may come before it.

Experiments:
gut microbiome = test: Microbiome (shotgun metagenomic sequencing) of DSS-induced colitis mice; type: in vivo; settings: for gut microbiome composition (in words): induced colitis conditions
C57BL/6 mice = test: MTD studies in mice; type: in vivo
[1] = test system: C57BL/6 mice with TNBS colitis; test: TNBS colitis in C57BL/6 mice; type: in vivo; design: TNBS Efficacy / Clinical Score / Histological Score / Colon Length: key to the marks not given beside the values
Procedure: (§1) C57BL/6 mice (20-22 grams) were fed ad lib and assigned to 4 different groups (n=8/group). After a 72 hr acclimation period the test group groups received 25 mg/kg of test compound PO (gavage) in vehicle daily. A control group received vehicle alone. After 24 hrs, mice were weighed and TNBS was injected intra-colonically using 5 cm of polyethylene (¼ inch) tubing. Mice were then treated with the test compounds and weighed daily for 4 days. Mice were sacrificed on day 4 and clinical score was assessed. Intestinal tissue for and blood were also collected. Tissues were either flash frozen and kept in −80° C. for RNA and protein isolation or placed in 10% formalin solution for future histological analysis. Blood was spun at 5K rpm for 5 min and serum was collected and kept at −20° C. for multiplex cytokine analysis.

[2] = test system: colon tissue gene expression; test: Colon tissue gene expression (RNA-Seq) in TNBS-induced colitis mice; type: in vivo; settings: for expression of genes related to inflammatory response: vs untreated
Procedure: as §1, with “Method: TNBS colitis: C57BL/6” for “C57BL/6”
RNA Sequencing: RNA was extracted from mouse colon tissue at Athos Therapeutics and was sent at Zymo Research or the Technology Center for Genomics & Bioinformatics at UCLA for sequencing and partial bioinformatics analysis.
Libraries for RNA-Seq were prepared with KAPA Stranded mRNA-Seq Kit. The workflow consists of mRNA enrichment and fragmentation, first strand cDNA synthesis using random priming, followed by second strand synthesis converting cDNA:RNA hybrid to double-stranded cDNA (dscDNA), and incorporates dUTP into the second cDNA strand. cDNA generation is followed by end repair to generate blunt ends, A-tailing, adaptor ligation, and PCR amplification. Different adaptors were used for multiplexing samples in one lane. Sequencing was performed on NovaSeq6000 (SP) for a PE 2×150 run. Data quality checking was done on Illumina SAV. Data de-multiplexing was performed with Illumina Bcl2fastq v 2.19.1.403 software. The reads were mapped by STAR 2.27a and read counts per gene were quantified using the mouse Ensembl Musmusculus.GRCm38.97 GTF file. In Partek Flow (Partek® Flow® software, v7.0 Copyright©. 2019 Partek Inc., St. Louis, Mo., USA) read counts were normalized by CPM +1.0E-4.
Gene differential expression analysis and downstream gene enrichment analysis was performed at Athos Therapeutics. The DESeq2 R package was used for differential expression analysis. DESeq2 FDR cutoff: 0.05, DESeq2 Log 2FC cutoff: 1 (FC cutoff: 2). Gene enrichment analysis was performed using the Enrichr) (https://maayanlab.cloud/Enrichr/enrich) and gprofiler (https://biit.cs.ut.ee/gprofiler/gost) platforms.

IL17 = IL17 protein levels in human CD4 T cells (ELISA); type: cell-based
Procedure: Naïve human CD4 T cells were cultured in DMEM supplemented with 10% heat-inactivated FBS, 2 mM glutamine, 100 U/ml penicillin, 100 μg/ml streptomycin and 25 mM Hepes. Human CD4 T cells were treated with anti-CD3 and anti-CD28 (100 ng/ml) together with small molecule compounds (500 nM) for 5 days. FoxP3 and CD4 positive cells were stained and imaged in a BD LSRII flow cytometer. The gated area represents the percentage CD4^highFoxP3^high immune cell population. Furthermore, the same small molecule compounds were evaluated for their effects on IL17 protein levels in human CD4 T cells by using an ELISA assay (R&D systems, cat no. D1700).

J82 = J82 bladder cancer cell viability (Real-Time-Glo); type: cell-based; settings: Homo sapiens, 72 hr, read-out: IC50, Cell line: J82
Procedure: To determine the plating density for cell viability assays, for each cell line, cells were counted and diluted to final densities of 2.5, 5, 10 and 20 thousand per 100 μl of their respective growth media per well in 96 well plates. A Promega Real-Time-Glo cell viability kit was used to determine the optimal concentration for cell plating so that each cell line would be within the linear part of its growth curve after 72 hrs in culture. For the determination of test compound IC50s different cancer cell lines were plated in 96 well plates in the pre-determined optimal density for each cell line. Test compounds were then added at different concentrations for the creation of six-point curve and cell density was determined using the Promega Real-Time-Glo cell viability kit after 24, 48, and 72 hrs in culture. Test compound 72 hr IC50s were calculated using the AAT Bioquest IC50 calculator.

in vitro = settings: PAMPA, 5 hours at RT
[3] = DSS colitis mice, 25 mg/kg PO daily, p<0.05

Compound: COc1cc2c(NC3CCS(=O)(=O)CC3)nc(N3CCC(F)(F)CC3)nc2cc1OCCCN1CCCC1 [Compound 1, 4-((2-(4,4-difluoropiperidin-1-yl)-6-methoxy-7-(3-(pyrrolidin-1-yl)propoxy)quinazolin-4-yl)amino)tetrahydro-2H-thiopyran 1,1-dioxide]
Bacteroidetes phylum abundance (gut microbiome; [3]): increase
Firmicutes phylum abundance (gut microbiome; [3]): significant decrease
Verrucomicrobia phylum abundance (gut microbiome; [3]): increase
gut microbiome composition (in words) (gut microbiome): significantly altered the gut microbiome composition and shifted it towards eubiosis
effects in weight change (MTD studies) (C57BL/6 mice; mouse, in vivo, po): not cause any effects in weight change

Compound: COc1cc2c(NC3CCOCC3)nc(N3CCC(F)(F)CC3)nc2cc1OCCCN1CCCC1 [Compound 2, 2-(4,4-difluoropiperidin-1-yl)-6-methoxy-7-(3-(pyrrolidin-1-yl)propoxy)-N-(tetrahydro-2H-pyran-4-yl)quinazolin-4-amine]
colitis associated damage in the intestine (in words) ([1]; 25 mg/kg PO daily): strong inhibitor of colitis associated damage in the intestine
Clinical Score ([1]; 25 mg/kg PO daily, day 4): ++
Colon Length ([1]; 25 mg/kg PO daily, day 4): ++
Histological Score ([1]; 25 mg/kg PO daily, day 4): ++
TNBS Efficacy ([1]; 25 mg/kg PO daily, day 4): ++
histological scores (in words) ([1]; vs vehicle treated controls): positive outcomes
expression of TNF [2]: significantly reduced expression
expression of infliximab marker genes [2]: significantly reduced expression
expression of pro-inflammatory cytokine and metalloproteinase pathway genes (22-gene signature) [2]: significantly reduced expression
number of inflammatory response genes with significantly reduced expression [2]: > 85 genes
Log2FC 1l6 ([2]; treated vs untreated): −4.82
Log2FC Ccl2 ([2]; treated vs untreated): −2.71
Log2FC Ccl3 ([2]; treated vs untreated): −7.36
Log2FC Ccl7 ([2]; treated vs untreated): −2.73
Log2FC Ccl9 ([2]; treated vs untreated): −1.15
Log2FC Csf3 ([2]; treated vs untreated): −6.66
Log2FC Csf3r ([2]; treated vs untreated): −3.19
Log2FC Cxcl1 ([2]; treated vs untreated): −6.03
Log2FC Cxcl2 ([2]; treated vs untreated): −8.30
Log2FC Cxcl3 ([2]; treated vs untreated): −10.19
Log2FC Cxcl5 ([2]; treated vs untreated): −6.57
Log2FC Il1a ([2]; treated vs untreated): −6.05
Log2FC Il1b ([2]; treated vs untreated): −6.17
Log2FC Il11 ([2]; treated vs untreated): −4.05
Log2FC Il13ra2 ([2]; treated vs untreated): −2.38
Log2FC Mmp3 ([2]; treated vs untreated): −4.47
Log2FC Osm ([2]; treated vs untreated): −4.67
Log2FC Osmr ([2]; treated vs untreated): −1.24
Log2FC Ptgs2 ([2]; treated vs untreated): −3.18
Log2FC Stc1 ([2]; treated vs untreated): −1.89
Log2FC Tnfrsf11b ([2]; treated vs untreated): −1.66
expression of genes related to inflammatory response [2]: significantly reduced expression levels
Bacteroidetes phylum abundance (gut microbiome; [3]): increase
Proteobacteria phylum abundance (gut microbiome; [3]): increase
gut microbiome composition (in words) (gut microbiome): significantly altered the gut microbiome composition and shifted it towards eubiosis
IL17 protein levels (IL17): do not have an effect

IC50 (J82): 1 to 5 µM
Compound: COc1cc2c(Nc3ccncc3)nc(N3CCC(F)(F)CC3)nc2cc1OCCCN1CCCC1 [Compound 7, 2-(4,4-difluoropiperidin-1-yl)-6-methoxy-N-(pyridin-4-yl)-7-(3-(pyrrolidin-1-yl)propoxy)quinazolin-4-amine]

Compound: COc1cc2c(NC3CCN(C(C)C)CC3)nc(N3CCC(F)(F)CC3)nc2cc1OCCCN1CCCC1 [Compound 400, 2-(4,4-difluoropiperidin-1-yl)-N-(1-isopropylpiperidin-4-yl)-6-methoxy-7-(3-(pyrrolidin-1-yl)propoxy)quinazolin-4-amine, reference compound]
IC50 (J82): 5 to 10 µM
expression of genes related to inflammatory response [2]: did not have any effect
IL17 protein levels (IL17): significantly suppresses
effects in weight change (MTD studies) (C57BL/6 mice; 50 mg/kg daily oral): not cause any effects in weight change
Papp (in vitro; PAMPA permeability Classification, 20 μM donor): 0.055 to 1.5 ×10⁻⁶ cm/s
Papp (in vitro; Permeability, Pe, 20 μM donor in PBS/MeOH 90:10): 0.178 ×10⁻⁶ cm/s
